The text below walks through data of patent US9446045B2, “Methods of using selective chemotherapeutic agents for targeting tumor cells” (Duquesne University of the Holy Ghost, priority 2006, dated 2016).

For test [1], the system named is FR-alpha expressing RT16 cells. As to the kind of experiment: Inhibition of FR-alpha expressing RT16 cells. Type of test: cell-based. The conditions noted are these: for selectivity for FR-alpha expressing RT16 cells over RFC expressing pc43-10 cells: RT16 vs pc43-10 cells. As for the experimental part:
(§1) AAG366, AAG344, the clinically used antifolates methotrexate, pemetrexed, ratitrexed, as well as the most important GARFTase inhibitor DDATHF (Lometrexol) were evaluated.

Test [2] concerns RFC expressing pc43-10 cells. As to the kind of experiment: Inhibition of RFC expressing pc43-10 cells. It is filed as cell-based. The conditions noted are these: pc43-10 cells vs FR-alpha expressing cells. On the procedure:
as §1

Molecules are shown by their SMILES.

`Nc1nc2c(c(=O)[nH]1)C[C@@H](CCc1ccc(C(=O)N[C@@H](CCC(=O)O)C(=O)O)cc1)CN2` [DDATHF]: in test [1], the “potency against FR-alpha expressing RT16 cells compared with AAG366 and AAG344” value is “less potent”; the “selectivity for FR-alpha expressing RT16 cells over RFC expressing pc43-10 cells” value was “none showed selectivity”. Also, the “potency against RFC expressing pc43-10 cells compared to FR-alpha expressing RT16 or KB cells” value in test [2] is “equal potency”.
Taken in the same sequence, the figures for `CN(Cc1cnc2nc(N)nc(N)c2n1)c1ccc(C(=O)N[C@@H](CCC(=O)O)C(=O)O)cc1` [methotrexate] were “less potent”, “none showed selectivity” and “greater potency”.
As for `Nc1nc2[nH]cc(CCc3ccc(C(=O)N[C@@H](CCC(=O)O)C(=O)O)cc3)c2c(=O)[nH]1` [pemetrexed], in test [1], the “potency against FR-alpha expressing RT16 cells compared with AAG366 and AAG344” value is recorded as “less potent”; the “selectivity for FR-alpha expressing RT16 cells over RFC expressing pc43-10 cells” value is reported as “none showed selectivity”. The “potency against RFC expressing pc43-10 cells compared to FR-alpha expressing RT16 or KB cells” value in test [2] is “greater potency”.
Taken in the same sequence, the figures for `Cc1nc(=O)c2cc(CN(C)c3ccc(C(=O)N[C@@H](CCC(=O)O)C(=O)O)s3)ccc2[nH]1` [ratitrexed] were “less potent”, “none showed selectivity” and “greater potency”.
